These results are taken from PMC6920923, “Improving In Vivo Brain Delivery of Monoclonal Antibody Using Novel Cyclic Peptides” (Pharmaceutics, 2019).

“Also recorded” adds a separate entry of the source. Positions of bridges follow the written chain, without caps; N, C: chain ends. Residues, ends and D or L forms follow the SMILES beside them.

The target in assay [1] is T1, EC1 domain of E-cadherin (Homo sapiens, UniProt P12830).
T1 sequence (P12830 155-262 limits assumed): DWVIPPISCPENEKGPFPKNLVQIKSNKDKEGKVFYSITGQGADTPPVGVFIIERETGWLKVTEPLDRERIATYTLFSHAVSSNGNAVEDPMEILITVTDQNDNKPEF
In words: SPR binding to immobilized EC1 domain of E-cadherin. To be noted: authors' separate study; for Kd: EC1 immobilized on streptavidin chip via Streptag I at N-terminus. An excerpt:
However, it was not yet clear whether the difference in activity was due to additive activity by the two sequences (Thr-Pro-Pro-Val and Ser-His-Ala-Val) or domination by only one sequence. As mentioned above, there was a trend that cyclic ADTHAV was slightly better than ADTC5. Because it is difficult to differentiate the activities of cyclic ADTHAV and ADTC5 in vivo, we compared their binding properties to the EC1 domain of E-cadherin using SPR experiments in a separate study. After optimizing the SPR running conditions, the EC1 protein was immobilized on the streptavidin chip via the Streptag I sequence on the N-terminus of the EC1 domain followed by injection of various peptide concentrations. […] In the future, the mechanism of cyclic ADTHAV binding to the EC1-domains of E-cadherin and VE-cadherin will be evaluated.
In general terms: Surface plasmon resonance follows binding to a sensor surface in real time, without labels.

For the next assay, the system named is MDCK cell monolayers. To be noted: cited from earlier work. Here is the method:
Previously, cyclic cHAVc1 (cyclo(1,8)Ac-CSHAVASC-NH2) and cHAVc3 (cyclo(1,6)Ac-CSHAVC-NH2) were prepared and compared to a linear HAV4 (Ac-SHAVAS-NH2) in modulating the intercellular junctions in vitro and in vivo [19]. […] An alanine scanning study was carried out to evaluate the role of each amino acid in HAV6 peptide, and the biological activity of each alanine mutant peptide was evaluated in lowering the TEER values of MDCK cell monolayers. Mutation of the Ser1 to Ala1 residue reduced the junction modulatory activity of the HAV6 mutant; ...

The next assay deals with brains of C57BL/6 mice. Nature of the assay: In vivo brain delivery of IRdye800CW-IgG mAb (NIRF quantification). The following applies: n = 3; for amount of IgG mAb in the brain (brain deposition): IgG mAb 21.6 nmol/kg with or without 13 µmol/kg peptide, i.v. tail vein, 15 min circulation, PBS/0.5% Tween-20 perfusion, NIRF (Odyssey CLx) of brain homogenate, mean ± SEM; for brain delivery of IgG mAb compared to control (IgG mAb alone), in words: IgG mAb 21.6 nmol/kg, peptide 13 µmol/kg i.v., ANOVA Student–Newman–Keuls. Here is the method:
The activity of each peptide in enhancing BBB penetration was evaluated by delivering IRdye800CW donkey anti-goat IgG mAb in C57BL/6 mice; the amounts of mAb in the brain were determined using near infrared fluorescence (NIRF) imaging. Each group contains 3 mice per group (n = 3) with a mixture of male and female mice, selected randomly for each arm of the study. The injection solution was prepared by adding 600 µL PBS into 0.5 mg lyophilized IgG mAb; then, approximately 1.5 mg lyophilized peptide was added into the mixture yielding the injectable formulation. A 100 µL solution of a mixture containing IgG mAb (21.6 nmol/kg) along with 13 µmol/kg peptide was administered via tail vein. As a control, 100 µL of IgG mAb alone was administered via i.v. route. After the delivered molecules had been circulating for 15 min, the mice were sacrificed; then, a mixture of PBS with 0.5% Tween-20 was administered for cardiac perfusion to remove the blood and delivered molecules from the brain microvessels. The brain and other organs such as lung, heart, spleen, liver, and kidney were harvested and rinsed with PBS. The isolated organs were scanned with Odyssey® CLx for mAb quantification.
The brain deposition of IgG mAb was also quantified by NIRF imaging in brain homogenates. The isolated brains were mechanically homogenized in 2.0 mL of PBS. To make the standard solutions, IRDye800CW IgG mAb stock solution (70 µg/mL) was prepared; it was then diluted with various amounts of PBS to make six different mAb concentrations. To generate a calibration curve, the brain homogenate (200 µL) was aliquoted out to a 96-well plate. A total of 10 µL of each concentration of IgG mAb was added to three different wells of blank brain homogenates. The standard spiked homogenates were at a range of 10–200 ng/mL IgG mAb in brain homogenate. The wells were scanned using the Odyssey® CLx scanner, and the signal intensities vs. concentrations of mAb per gram of brain were used to generate a calibration curve.
ANOVA with Student–Newman–Keuls was used to compare the data for determining statistical significance for IgG mAb deposition in the brains. A p-value of less than 0.05 was used as a criterion for a significant difference in data comparison. Numeric results are presented as: mean ± SEM.
A calibration curve was generated to determine the amount of IgG mAb in the brain by spiking blank brain homogenates with a concentration range from 10 to 200 ng/mL, and good linearity with R^2 ≥ 0.98 was achieved. […] The average amounts of IgG mAb in the brains of HAV6-treated and control animals were 3.4 ± 0.4 and 4.0 ± 0.5 pmol/g brain, respectively. In contrast, the average amounts of mAb in the brains of cyclic HAVN1- and HAVN2-treated mice were 8.6 ± 0.5 and 8.8 ± 0.6 pmol/g brain, respectively. The BBB modulatory activities of ADTC5, linear ADTHAV, and cyclic ADTHAV were also compared to the control (Figure 5). […] The average brain deposition of IgG mAb were 11.8 ± 0.5, 15.7 ± 0.8, and 13.3 ± 0.7 pmol/g brain for linear ADTHAV, cyclic ADTHAV, and ADTC5, respectively.

In assay [2] the target is EC1 domain of E-cadherin. Nature of the assay: SPR; EC1 protein immobilised on a streptavidin chip via the Streptag I sequence on its N-terminus; various peptide concentrations injected.

For orientation: Kd means the concentration at which binding is half-saturated. Low readings indicate a tighter complex, high ones a looser complex. In turn, `CC(=O)N[C@H]1CSSC[C@@H](C(N)=O)NC(=O)[C@H](C(C)C)NC(=O)[C@@H]2CCCN2C(=O)[C@@H]2CCCN2C(=O)[C@H]([C@@H](C)O)NC(=O)[C@H](CC(=O)O)NC1=O` [ADTC5, Cyclo(1,7)Ac-CDTPPVC-NH2] (Ac-CDTPPVC-NH2; disulfide 1-7) returned a Kd on EC1 domain of E-cadherin [1] of 26.8 µM.

For the molecule “cyclo(1,8)Ac-CSHAVASC-NH2 (disulfide) [cHAVc1, earlier cyclic HAV peptide]”, the “junction modulatory activity in MDCK cell monolayers, in words” value in the assay on MDCK cell monolayers (compared to HAV4 (and cHAVc1), ref [19]) is listed as “same junction modulatory activity as HAV4 peptide”.

As to “Cyclo(1,5)SHAVS (head to tail) [HAVN2, N-to-C-termini cyclo-pentapeptide derived from HAV6]”, in the assay with brains of C57BL/6 mice (13 µmol/kg peptide, 15 min), the “BBB modulatory activity / IgG mAb brain delivery compared to HAV6, in words” value is listed as “significantly enhanced; also recorded: improvement in the BBB modulatory activity; also recorded: better BBB modulatory effects than their linear counterpart, HAV6” and the “BBB modulatory activity compared to HAVN1, in words” value was “removal of one serine residue did not influence the BBB modulatory activity of HAVN2 compared to HAVN1”. For the same molecule, the “amount of IgG mAb in the brain (brain deposition)” value (“amount of IgG mAb in the brain” for short) in the assay with brains of C57BL/6 mice turned out to be 8.8 ± 0.6 pmol/g brain. Further, the “brain delivery of IgG mAb compared to control (IgG mAb alone), in words” value in the assay with brains of C57BL/6 mice (15 min) is given as “significantly enhanced”.

As for “Cyclo(1,6)SHAVSS (head to tail) [HAVN1, N-to-C-termini cyclo-hexapeptide derived from HAV6]”, the “BBB modulatory activity / IgG mAb brain delivery compared to HAV6, in words” value in the assay with brains of C57BL/6 mice (13 µmol/kg peptide, 15 min) is listed as “significantly enhanced; also recorded: improvement in the BBB modulatory activity; also recorded: better BBB modulatory effects than their linear counterpart, HAV6”. For the same molecule, the “amount of IgG mAb in the brain” value with brains of C57BL/6 mice was 8.6 ± 0.5 pmol/g brain. Also, the “brain delivery of IgG mAb compared to control (IgG mAb alone), in words” value in the assay on brains of C57BL/6 mice (15 min) is reported as “significantly enhanced”.

`CC(C)[C@@H]1NC(=O)[C@H](C)NC(=O)[C@H](Cc2c[nH]cn2)NC(=O)[C@H](CO)NC(=O)[C@H](C(C)C)NC(=O)[C@@H]2CCCN2C(=O)[C@@H]2CCCN2C(=O)[C@H]([C@@H](C)O)NC1=O` [cyclic ADTHAV, Cyclo(1,8)TPPVSHAV] (cyclo(TPPVSHAV)): the “BBB modulatory activity to deliver IgG mAb compared to cyclic HAVN2, in words” value in the assay with brains of C57BL/6 mice (13 µmol/kg peptide, 15 min) is “significantly better than that of cyclic HAVN2”. Further, in the assay with brains of C57BL/6 mice, the “amount of IgG mAb in the brain” value is reported as 15.7 ± 0.8 pmol/g brain. Besides, the “brain delivery of IgG mAb compared to control (IgG mAb alone), in words” value in the assay on brains of C57BL/6 mice (15 min) is recorded as “significantly better than in the PBS control”. The molecule also had a Kd on EC1 domain of E-cadherin [1] of 0.114 µM. Further, the “binding affinity to EC1 domain of E-cadherin vs ADTC5, in words” value on EC1 domain of E-cadherin [1] was “higher binding affinity”; on EC1 domain of E-cadherin [1] (listed as Cyclic ADTHAV) it was “better binding affinity to the EC1 domain of E-cadherin than does ADTC5”.

As for Ac-TPPVSHAV-NH2 [linear ADTHAV], in the assay on brains of C57BL/6 mice, the “amount of IgG mAb in the brain” value is 11.8 ± 0.5 pmol/g brain. The “brain delivery of IgG mAb compared to control (IgG mAb alone), in words” value with brains of C57BL/6 mice (15 min) is listed as “significantly better than in the PBS control”.

Turning to “Ac-SHAVAS-NH2 [HAV4, earlier linear HAV peptide]”, the “junction modulatory activity of HAV6 analogues (alanine scan), in words” value in the assay with MDCK cell monolayers (lowering TEER of MDCK cell monolayers, ref [34]) is “enhanced modulatory activity of the peptide compared to HAV6”.

As to TPPVSHAV (cyclo(1,8): N-to-C terminal peptide bond) [Cyclic ADTHAV], the Kd with EC1 domain of E-cadherin [2] stood at 0.114 µM. This lies in the sub-micromolar range.

B1: Cyclic ADTC5 (peptide)
peptide: Ac-CDTPPVC-NH2
modifications: disulfide 1-7
SMILES: CC(=O)N[C@H]1CSSC[C@@H](C(N)=O)NC(=O)[C@H](C(C)C)NC(=O)[C@@H]2CCCN2C(=O)[C@@H]2CCCN2C(=O)[C@H]([C@@H](C)O)NC(=O)[C@H](CC(=O)O)NC1=O
For B1, in the assay with EC1 domain of E-cadherin [2], the Kd turned out to be 26.8 µM.
